Patent publication US20020115642A1, “Beta-lactam antibiotics” (priority 2000, published 2002)
Values after ≈ are worked out from the molar mass of the structure shown. Like-named read-outs stand apart in the source and are kept apart here.

Assays:
Experiment in all cases: Susceptibility testing (MIC, modified NCCLS method)
[1] = system: E. coli/TEM-1; type: cell-based, Escherichia coli
Procedure: (§1) The NCCLS (National Committee for Clinical Laboratory Standards) method to determine MIC's of antimicrobial compounds was modified for high-throughput screening. All stocks of tested compounds were prepared in either water or in dimethylsulfoxide (DMSO), depending on the solubility. […] Briefly 20 2-fold serial dilutions of testing compounds from the highest concentration were made in a 384-well microtiter plate. Each well was inoculated with testing bacteria in broth to a final concentration of approximately 1-1.5×10^6 cells/ml. Bacterial growth was determined by the increase of optical density at 600 nm using a microplate reader (Tecan SpectraFluor Plus).

[2] = system: E. coli N; type: cell-based, Escherichia coli; conditions: E. coli (N)
Procedure: as §1

[3] = system: P. aeruginosa; type: cell-based, Pseudomonas aeruginosa
Procedure: as §1

[4] = system: E. aerogenes; type: cell-based, Enterobacter aerogenes
Procedure: as §1

[5] = system: E. cloacae; type: cell-based, Enterobacter cloacae
Procedure: as §1

[6] = system: E. faecalis; type: cell-based, Enterococcus faecalis
Procedure: as §1

[7] = system: K. pneumoniae; type: cell-based, Klebsiella pneumoniae
Procedure: as §1

[8] = system: Staphylococcus aureus; type: cell-based
Procedure: as §1

[9] = Escherichia coli, read-out: MIC
[10] = Pseudomonas aeruginosa, ATCC21726, P. aeruginosa ATCC 21726, read-out: MIC
[11] = Klebsiella pneumoniae, ATCC700721, K. pneumoniae ATCC 700721, read-out: MIC
[12] = Staphylococcus aureus, ATCC700260, S. aureus ATCC 700260, read-out: MIC
[13] = Staphylococcus aureus, ATCC700699, S. aureus ATCC 700699, read-out: MIC
[14] = Pseudomonas aeruginosa, ATCC29872, P. aeruginosa ATCC 29872, read-out: MIC
[15] = Klebsiella aerogenes, ATCC35028, E. aerogenes ATCC 35028, read-out: MIC
[16] = Enterobacter cloacae, ATCC23355, E. cloacae ATCC 23355, read-out: MIC
[17] = Enterococcus faecalis, ATCC49757, E. faecalis ATCC 49757, read-out: MIC
[18] = Enterococcus faecalis, ATCC700802, E. faecalis ATCC 700802, read-out: MIC
[19] = Klebsiella pneumoniae, ATCC51503, K. pneumoniae ATCC 51503, read-out: MIC
[20] = Staphylococcus aureus, ATCC11632, S. aureus ATCC 11632, read-out: MIC
[21] = Staphylococcus aureus, ATCC33594, S. aureus ATCC 33594, read-out: MIC

Molecule	MIC ([1]; E. coli/Tem-1) [µg/mL]	MIC [2] [µg/mL]	MIC ([3]; P. aeruginosa ATCC 21726) [µg/mL]	MIC ([3]; P. aeruginosa ATCC 29872) [µg/mL]	MIC ([4]; E. aerogenes ATCC 35028) [µg/mL]	MIC ([5]; E. cloacae ATCC 23355) [µg/mL]	MIC ([6]; E. faecalis ATCC 49757) [µg/mL]	MIC ([6]; E. faecalis ATCC 700802) [µg/mL]	MIC ([7]; K. pneumoniae ATCC 51503) [µg/mL]	MIC ([7]; K. pneumoniae ATCC 700721) [µg/mL]	MIC ([8]; S. aureus ATCC 11632) [ng/mL]	MIC ([8]; S. aureus ATCC 33594) [ng/mL]	MIC ([8]; S. aureus ATCC 700260) [ng/mL]	MIC ([8]; S. aureus ATCC 700699) [ng/mL]	also measured
O=C(Cc1cccs1)NC1C(=O)N2C(C(=O)O)=C(CC=COc3cc(Cl)ccc3Oc3ccc(Cl)cc3Cl)CSC12 (centres unmarked) [Compound 24, 3-(1-(2-(2,4-Dichlorophenoxy)-5-chlorophenoxy)-3-propenyl)-7-(2-thienylacetamido)-3-cephem-4-carboxylic acid]	0.016 (≈ 0.0245 µM)	0.26 (≈ 0.399 µM)	>16.6	>16.6	4.14 (≈ 6.35 µM)	2.07 (≈ 3.17 µM)	4.14 (≈ 6.35 µM)	8.28 (≈ 12.7 µM)	2.07 (≈ 3.17 µM)	2.07 (≈ 3.17 µM)	65 (≈ 0.0997 µM)	65 (≈ 0.0997 µM)	0.01 (≈ 1.53e-05 µM)	32 (≈ 0.0491 µM)	–
O=C(Cc1cccs1)NC1C(=O)N2C(C(=O)O)=C(COC(=O)Oc3cc(Cl)ccc3Oc3ccc(Cl)cc3Cl)C[S+]([O-])[C@H]12 (some centres unmarked) [Compound 17, 3-((2-(2,4-Dichlorophenoxy)-5-chlorophenoxy)carbonyloxy)methyl-7-(2-thienylacetamido)-1-oxo-3-cephem-4-carboxylic acid]	–	–	–	–	–	–	–	–	–	–	–	–	–	–	MIC ([1]; Escherichia coli): 0.032 µg/mL (≈ 0.0467 µM); MIC [2, 9]: 0.016 µg/mL (≈ 0.0233 µM); MIC [3, 10]: > 16.5 µg/mL; MIC [7, 11]: 1.03 µg/mL (≈ 1.5 µM); MIC [8, 12]: 0.063 ng/mL (≈ 9.18e-05 µM); MIC [8, 13]: 0.25 ng/mL (≈ 0.000364 µM)
Cc1nnc(SCC(=O)Nc2ncc(CC(=O)NC3C(=O)N4C(C(=O)O)=C(COc5cc(Cl)ccc5Oc5ccc(Cl)cc5Cl)CSC34)s2)s1 (centres unmarked) [Compound 47]	0.25 (≈ 0.307 µM)	2 (≈ 2.46 µM)	>32	>32	>32	>32	>32	>32	>32	8 (≈ 9.83 µM)	>32000	63 (≈ 0.0774 µM)	8000 (≈ 9.83 µM)	>32000	MIC ([8]; S. aureus ATCC 33591): 125 ng/mL (≈ 0.154 µM)
C[C@@H](O)[C@H]1C(=O)N2C(C(=O)O)=C(SCCN=CN)C[C@H]12 [Imipenem, reference compound]	–	–	–	–	–	–	–	–	–	–	–	–	–	–	MIC range ([4]; E. aerogenes (5)): 0.5 to 1 µg/mL; MIC ([4]; Klebsiella aerogenes, E. aerogenes (5), read-out: GM* MIC (geometric mean)): 0.66 µg/mL (≈ 2.2 µM); MIC range ([5]; E. cloacae (1)): 0.0078 µg/mL (≈ 0.0261 µM); MIC ([5]; Enterobacter cloacae, E. cloacae (1), read-out: GM* MIC (geometric mean)): 0.0078 µg/mL (≈ 0.0261 µM); MIC range ([7]; K. pneumoniae (5)): 0.063 to 8 µg/mL; MIC ([7]; Klebsiella pneumoniae, K. pneumoniae (5), read-out: GM* MIC (geometric mean)): 0.46 µg/mL (≈ 1.54 µM)
CC(=O)NC1C(=O)N2C(C(=O)O)=C(COc3cc(Cl)ccc3Oc3ccc(Cl)cc3Cl)CSC12 (centres unmarked) [Compound 45]	–	–	>32	>32	>32	>32	16 (≈ 29.4 µM)	32 (≈ 58.8 µM)	8 (≈ 14.7 µM)	2 (≈ 3.68 µM)	>32000	63 (≈ 0.116 µM)	63 (≈ 0.116 µM)	16000 (≈ 29.4 µM)	–
O=C(O)CCC(=O)N[C@@H]1C(=O)N2C(C(=O)O)=C(COc3cc(Cl)ccc3Oc3ccc(Cl)cc3Cl)CS[C@H]12 [Compound 36]	–	–	–	–	–	–	–	–	–	–	–	–	–	–	MIC [3, 10]: > 32 µg/mL; MIC [3, 14]: > 32 µg/mL; MIC [4, 15]: > 32 µg/mL; MIC [5, 16]: > 32 µg/mL; MIC [6, 17]: > 32 µg/mL; MIC [6, 18]: > 32 µg/mL; MIC [7, 19]: > 32 µg/mL; MIC [7, 11]: > 32 µg/mL; MIC [8, 20]: > 32000 ng/mL; MIC ([8]; Staphylococcus aureus, ATCC33591, S. aureus ATCC 33591, read-out: MIC): 2000 ng/mL (≈ 3.32 µM); MIC [8, 21]: > 32000 ng/mL; MIC [8, 12]: > 32000 ng/mL; MIC [8, 13]: > 32000 ng/mL
CON=C(C(=O)NC1C(=O)N2C(C(=O)O)=C(COc3cc(Cl)ccc3Oc3ccc(Cl)cc3Cl)CSC12)c1csc(N)n1 (centres unmarked) [Compound 44]	–	–	>32	>32	>32	4 (≈ 5.84 µM)	32 (≈ 46.7 µM)	32 (≈ 46.7 µM)	8 (≈ 11.7 µM)	8 (≈ 11.7 µM)	500 (≈ 0.73 µM)	63 (≈ 0.092 µM)	63 (≈ 0.092 µM)	>32000	–
3-(2-(2,4-Dichlorophenoxy)-5-chlorophenoxy)methyl-7-[4-(2-aminothiazole)-yl-2-acetamido]-3-cephem-4-carboxylic acid [Compound 39]	0.063	1	>16	–	>16	–	16	–	16	–	–	–	2	4000	–
3-(2-(2,4-Dichlorophenoxy)-5-chlorophenoxy)methyl-7-(1-phenyl-2-aminoacetamido)-3-cephem-4-carboxylic acid [Compound 37]	0.12	4	>16	–	–	–	–	–	–	8	–	–	3.9	–	–
O=C(Cc1cccs1)NC1C(=O)N2C(C(=O)O)=C(C=CCOc3ccc(Cl)cc3C(=O)Nc3ccc(Cl)c(Cl)c3)CS[C@H]12 (some centres unmarked) [Compound 35, 3-{3-[4-Chloro-2-(3,4-dichloro-phenylcarbamoyl)-phenoxy]-propenyl}-7-(2-thiophene-acetmido)-3-cephem-4-carboxylic acid]	–	–	>32	>32	>32	>32	8 (≈ 11.8 µM)	>32	>32	>32	63 (≈ 0.0928 µM)	63 (≈ 0.0928 µM)	250 (≈ 0.368 µM)	>32000	–
NC(C(=O)NC1C(=O)N2C(C(=O)O)=C(COc3cc(Cl)ccc3Oc3ccc(Cl)cc3Cl)CS[C@H]12)c1ccc(O)cc1 (some centres unmarked) [Compound 41, 3-(2-(2,4-Dichlorophenoxy)-5-chlorophenoxy)methyl-7-[2-amino-2-(4-hydroxy-phenyl)acetamido)-3-cephem-4-carboxylic acid]	–	–	–	–	–	–	–	–	–	–	–	–	–	–	MIC [2, 9]: 0.25 µg/mL (≈ 0.384 µM); MIC [3, 10]: > 32 µg/mL; MIC [3, 14]: > 32 µg/mL; MIC [4, 15]: 4 µg/mL (≈ 6.15 µM); MIC [5, 16]: 1 µg/mL (≈ 1.54 µM); MIC [6, 17]: 32 µg/mL (≈ 49.2 µM); MIC [6, 18]: 32 µg/mL (≈ 49.2 µM); MIC [7, 19]: 8 µg/mL (≈ 12.3 µM); MIC [7, 11]: 8 µg/mL (≈ 12.3 µM); MIC [8, 20]: 63 ng/mL (≈ 0.0968 µM); MIC [8, 21]: 63 ng/mL (≈ 0.0968 µM); MIC [8, 12]: 63 ng/mL (≈ 0.0968 µM); MIC [8, 13]: 63 ng/mL (≈ 0.0968 µM)
